Experimental findings from EP1027888B1, “Osmotic system for delivery of solid amorphous dispersions of drugs” (Pfizer Products Inc., priority 1999, dated 2000) are described below.

A short description of one data set: physchem. Particulars: water.
A short description of data set [1]: dissolution in phosphate-buffered solution pH 7.2 (Example 7). The format is physicochemical. Particulars: 50 ml phosphate-buffered solution pH 7.2. As for the experimental part:
For a comparative dissolution study, Control G, consisting of 100 mg of crystalline Drug 2 was prepared. The dissolution of drug was studied by placing one each of the bi-layer tablet and Control G preparation containing an equal amount of Drug 2 in 50 ml of the phosphate-buffered solution of Example 3 (pH 7.2, osmotic pressure 5.3 atm) to simulate an intestinal environment of use.

Data set [2] is described as follows: dissolution in phosphate buffered saline (PBS) solution (Example 3). The format is physicochemical. Conditions: 35 ml PBS solution. How it is done:
For a comparative dissolution study, Control E, consisting of 35 mg of crystalline Drug 2 was prepared. The dissolution of drug was studied by placing two of the trilayer tablets and Control E each in 35 ml of a phosphate buffered saline (PBS) solution composed of 6 mM KH2PO4, 5 mM NaOH, 60 mM KC1 and 30 mM NaCl. The data for the trilayer tablet is the average of the values for the two tablets tested.

The nature of data set [3]: dissolution in MFD solution (Example 8). The format is physicochemical. Particulars: 40 ml MFD solution. How it is done:
For a comparative dissolution study, Control H, consisting of 111.4 mg of the crystalline drug, was used. The dissolution of drug was studied by placing the bilayer tablet and Control H each in 40 ml of MFD solution.

The nature of data set [4]: dissolution in MFD solution (Example 6). The format is physicochemical. Particulars: 50 ml MFD solution. How it is done: A Model Fasted Duodenum (MFD) solution was prepared to mimic the chemical environment of the small intestine, the solution comprising a phosphate-buffered saline solution containing 14.7 mM sodium taurocholic acid and 2.8 mM of 1-palmitoyl-2-oleyl-sn-glycero-3-phosphocholine with a pH of 6.5.
The data for the tri-layer tablet is the average of the values for the two tablets tested.

Converted amounts (≈) assume the structure as drawn.

One may read the solubility as the concentration that dissolves in the medium under given conditions. A high value points to much dissolved substance. `O=C(N[C@@H](Cc1ccccc1)[C@@H](O)C(=O)N1C[C@@H](O)[C@@H](O)C1)c1cc2cc(Cl)ccc2[nH]1` [Drug 2] had a solubility in the data set “physchem” of 80 µg/mL (≈ 175 µM). Also, the MDC in data set [1] is recorded as 77 µg/mL; in data set [2], 171 µg/mL. For the same compound, the “[Drug]” value in data set [1] (time 0 hr) came to 0 µg/mL; in data set [1] (time 1 hr), 59 µg/mL; in data set [1] (time 2 hr), 72 µg/mL; in data set [1] (time 4 hr), 72 µg/mL; in data set [1] (time 8 hr), 77 µg/mL; in data set [1] (time 12 hr), 71 µg/mL. The “[Drug]” value in data set [1] (time 18 hr) is listed as 71 µg/mL; in data set [1] (time 24 hr), 75 µg/mL; in data set [2] (time 0.3 hr), 99 µg/mL; in data set [2] (time 1.5 hr) it was 148 µg/mL; in data set [2] (time 2.0 hr) it was 165 µg/mL; in data set [2] (time 3.0 hr), 137 µg/mL. The “[Drug]” value in data set [2] (time 4.0 hr) was found to be 142 µg/mL; in data set [2] (time 12.0 hr), 157 µg/mL; in data set [2] (time 20.0 hr), 171 µg/mL.

Broadly, the AUC is concentration integrated over time. A high value points to more exposure. In turn, `CN[C@H]1CC[C@@H](c2ccc(Cl)c(Cl)c2)c2ccccc21` [sertraline] gave an MDC in data set [3] of 401 µg/mL. In addition, the “[Drug]” value in data set [3] (time 0 hr) was 0 µg/mL; in data set [3] (time 0.2 hr), 278 µg/mL; in data set [3] (time 0.3 hr), 401 µg/mL; in data set [3] (time 0.7 hr), 341 µg/mL; in data set [3] (time 1.5 hr) it was 217 µg/mL; in data set [3] (time 2 hr), 188 µg/mL. Also, the “[Drug]” value in data set [3] (time 3 hr) came to 168 µg/mL; in data set [3] (time 4 hr) it was 152 µg/mL; in data set [3] (time 6 hr), 160 µg/mL; in data set [3] (time 10 hr), 137 µg/mL; in data set [3] (time 14 hr), 135 µg/mL; in data set [3] (time 24 hr), 191 µg/mL. The area under the curve (AUC) in data set [3] (up to 0 hr) was 0 µg·min/mL; in data set [3] (up to 0.2 hr), 830 µg·min/mL; in data set [3] (up to 0.3 hr), 4,230 min·µg/mL; in data set [3] (up to 0.7 hr), 11,650 min·µg/mL; in data set [3] (up to 1.5 hr) it was 25,610 min·µg/mL; in data set [3] (up to 2 hr) it was 31,700 min·µg/mL. The AUC in data set [3] (up to 3 hr) is recorded as 42,400 min·µg/mL; in data set [3] (up to 4 hr) it was 52,000 min·µg/mL; in data set [3] (up to 6 hr), 70,640 min·µg/mL; in data set [3] (up to 10 hr), 106,200 min·µg/mL; in data set [3] (up to 14 hr) it was 122,500 min·µg/mL.

For “[R-(R*,S*)]-5-chloro-N-[2-hydroxy-3-[methoxymethylamino)-3-1-(phenylmethyl)propyl]propyl]-1H-indole-2-carboxamide [Drug 1]”, the MDC in data set [4] stood at 16 µg/mL. Further, the “[Drug]” value was found to be 0 µg/mL in data set [4] (time 0 hr); 13 µg/mL in data set [4] (time 2 hr); 16 µg/mL in data set [4] (time 4 hr); 13 µg/mL in data set [4] (time 8 hr); 15 µg/mL in data set [4] (time 12 hr); 12 µg/mL in data set [4] (time 20 hr). Further, in data set [4] (time 24 hr), the “[Drug]” value was 11 µg/mL.
